The values below come from publication PMC12615753, “Glutathione as a taste modulator: molecular mechanisms of interaction with umami and sweet taste receptors” (Food Chemistry: Molecular Sciences, 2025).

Each structure is given as a SMILES string. Some results are limits rather than exact numbers.

The target in this experiment is T1, hTAS1R1 E301A/rTAS1R3 (UniProt Q7RTX1+Q923K1, E301A).
T1 construct: UniProtKB number Q7RTX1–1); The cDNA coding region of rTAS1R3 was synthesized with optimized-codon usage for human expression; expressed in transfected cells; host or cells: HEK293T/17
T1 sequence (Q7RTX1 21-841 E301A): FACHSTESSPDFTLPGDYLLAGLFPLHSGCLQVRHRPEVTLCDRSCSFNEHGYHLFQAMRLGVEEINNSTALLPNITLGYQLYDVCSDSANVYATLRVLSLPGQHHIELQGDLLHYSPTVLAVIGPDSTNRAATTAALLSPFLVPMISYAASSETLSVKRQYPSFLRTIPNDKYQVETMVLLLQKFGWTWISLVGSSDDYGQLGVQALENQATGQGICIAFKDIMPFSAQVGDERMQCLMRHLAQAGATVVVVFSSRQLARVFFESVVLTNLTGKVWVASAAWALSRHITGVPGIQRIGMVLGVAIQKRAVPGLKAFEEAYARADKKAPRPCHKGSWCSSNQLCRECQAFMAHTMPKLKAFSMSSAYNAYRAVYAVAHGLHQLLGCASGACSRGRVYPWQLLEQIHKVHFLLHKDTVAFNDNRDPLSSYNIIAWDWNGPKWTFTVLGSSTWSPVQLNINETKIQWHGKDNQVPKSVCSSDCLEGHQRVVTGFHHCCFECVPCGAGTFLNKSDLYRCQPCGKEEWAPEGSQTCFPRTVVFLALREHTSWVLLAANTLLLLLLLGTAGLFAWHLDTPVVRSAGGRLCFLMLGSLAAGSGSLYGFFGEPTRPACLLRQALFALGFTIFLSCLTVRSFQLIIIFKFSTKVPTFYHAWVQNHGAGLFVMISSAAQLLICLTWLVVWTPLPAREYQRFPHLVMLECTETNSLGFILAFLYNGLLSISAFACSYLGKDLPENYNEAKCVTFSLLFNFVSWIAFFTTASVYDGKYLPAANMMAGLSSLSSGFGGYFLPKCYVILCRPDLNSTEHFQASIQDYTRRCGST
T1 sequence (Q923K1 21-858): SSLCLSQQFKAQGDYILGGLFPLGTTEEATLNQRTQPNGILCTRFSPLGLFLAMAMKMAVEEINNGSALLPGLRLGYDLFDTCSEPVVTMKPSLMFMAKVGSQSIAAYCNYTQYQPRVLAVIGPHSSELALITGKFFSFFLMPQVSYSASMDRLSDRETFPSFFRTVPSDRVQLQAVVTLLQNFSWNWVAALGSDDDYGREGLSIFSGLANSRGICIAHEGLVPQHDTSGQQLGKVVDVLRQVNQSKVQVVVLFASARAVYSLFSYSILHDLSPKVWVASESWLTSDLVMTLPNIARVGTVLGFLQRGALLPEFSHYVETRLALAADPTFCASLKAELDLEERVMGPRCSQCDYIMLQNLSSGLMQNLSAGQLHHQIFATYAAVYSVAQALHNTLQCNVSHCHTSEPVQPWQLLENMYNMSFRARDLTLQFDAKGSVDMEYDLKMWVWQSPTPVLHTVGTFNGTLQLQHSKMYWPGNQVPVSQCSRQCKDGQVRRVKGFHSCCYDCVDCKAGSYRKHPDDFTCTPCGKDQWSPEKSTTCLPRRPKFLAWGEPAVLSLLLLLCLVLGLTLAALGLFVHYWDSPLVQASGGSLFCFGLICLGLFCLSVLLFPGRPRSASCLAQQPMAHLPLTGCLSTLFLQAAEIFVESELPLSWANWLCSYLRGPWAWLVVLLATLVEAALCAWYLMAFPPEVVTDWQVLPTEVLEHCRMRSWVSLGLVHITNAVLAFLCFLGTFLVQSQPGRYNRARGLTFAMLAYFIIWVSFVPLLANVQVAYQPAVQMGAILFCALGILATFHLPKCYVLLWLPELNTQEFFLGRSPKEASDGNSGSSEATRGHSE
As to the kind of experiment: cell-based. In kind it is cell-based, human, rat. Conditions: for response to the agonist alone, vs WT: E301A. An excerpt: Chimeric Gα proteins, such as Gα16Gust44, Gα16Gi3 or Gα15i2, are widely used in the functional expression of TAS1R receptors ([Backes et al., 2015]; [Suess et al., 2015]; [Toda et al., 2021], [Toda et al., 2013], [Toda et al., 2018]; [Zhang et al., 2008]). Chimeric Gα15i2 (([Toda et al., 2013]), Supplementary data) was generated by replacing the last five residues of the C-terminal tail of rat Gα15i2 (EINLL) (UniProt number G3V6N8; https://www.uniprot.org/uniprot/) with the counterpart sequence from human GNAI2 (DCGLF) (UniProt number P04899-1) and cloning into the pcDNA3.1/Hygro vector (Invitrogen, Thermo Fisher Scientific, Illkirch, France) between the HindIII and NotI restriction sites, resulting in the plasmid pcDNA3.1-Gα15i2. Chimeric Gα16Gust44 construct have already been reported ([Raliou et al., 2011]). Briefly, Gα16Gust44 was generated by replacing the C-terminal of Gα16 with the C-terminal 44 residues of gustducin. As previously described, hTAS1R1 was amplified from human fungiform papillae cDNA and cloned and inserted into pcDNA3 (Invitrogen), generating pcDNA3-TAS1R1-WT (wild-type) ([Raliou et al., 2011]). […] The cDNA coding region of rTAS1R3 was synthesized with optimized-codon usage for human expression (Genewiz) and was cloned and inserted into the mammalian pcDNA4/myc-HisA (Invitrogen) expression vector between the EcoRI and NotI restriction sites, resulting in the plasmid pcDNA4-rTAS1R3. […] The sequence integrity of all the plasmid constructs was verified via automated DNA sequencing (Genewiz).
The hTAS1R1 mutants were co-expressed with the rTAS1R3 subunit in HEK293 cells. […] As a control, the functionality of the mutated receptors was checked after stimulation with S807 (Fig. S8), which interacts with TAS1R1-TMD ([Zhang et al., 2008]).

One may read the EC50 as the concentration that produces a half-maximal response. Higher therefore signals a need for much substance. As for `N[C@@H](CCC(=O)N[C@@H](CS)C(=O)NCC(=O)O)C(=O)O` [GSH, γ-L-glutamyl-L-cysteinyl-glycine], the EC50 is more than 30 mM and the “response to the agonist alone, vs WT” value is “fully abolished”.
Consider `N[C@@H](CCC(=O)O)C(=O)O` [L-Glu, L-glutamic acid, reference compound], for which the “response to the agonist alone, vs WT” value is given as “completely suppressed”.
